Entries after “also recorded” stand apart in the source; their conditions may differ.
Key:
S. aureus RN4220 = test: Toxicity study of compounds in bacterial culture (absence of phage); format: cell-based; settings: 20 μM, 16 h, no phage
Protocol: FIG. 79. Toxicity study of compounds in bacterial culture. Bacterial growth study in the presence of the compound. Bacterial cell S. aureus RN4220 strain was allowed to grow either in the presence of DMSO or 20 μM of compound BRD7087 or BRD5779 over 16 h. The experiment was performed in three technical replicates.
Bacterial study. Plasmid pRH248 harboring SpCas9, tracrRNA and a single-spacer array ([…]) (SEQ ID NO:7) targeting phage DNM474 was constructed via BsaI cloning onto pDB114 as described in Heler et al 6. Plate reader growth curves of bacteria infected with phage were conducted as described previously with minor modifications 7. Overnight cultures were diluted 1:100 into 2 ml of fresh BHI supplemented with appropriate antibiotics and 5 mM CaCl2) and grown to an OD600 of ˜0.2. Immune cells carrying pRH248 were diluted with cells lacking CRISPR-Cas in a 1:10,000 ratio. […] To produce plate reader growth curves, 200 μL of infected cultures, normalized for OD600, were transferred to a 96-well plate in triplicate. […]
Bacterial study. […] Plate reader growth curves of bacteria infected with phage were conducted as described previously with minor modifications^7. […] To produce plate reader growth curves, 200 μL of infected cultures, normalized for OD600, were transferred to a 96-well plate in triplicate. […]

SpCas9 = SpCas9 (Streptococcus pyogenes serotype M1, UniProt Q99ZW2); test: mCherry-GFP NHEJ assay; format: cell-based; set-up: host or cells: U2OS.eGFP-PEST; settings: 2-10 μM, 24 h
SpCas9, sequence (Q99ZW2 whole entry): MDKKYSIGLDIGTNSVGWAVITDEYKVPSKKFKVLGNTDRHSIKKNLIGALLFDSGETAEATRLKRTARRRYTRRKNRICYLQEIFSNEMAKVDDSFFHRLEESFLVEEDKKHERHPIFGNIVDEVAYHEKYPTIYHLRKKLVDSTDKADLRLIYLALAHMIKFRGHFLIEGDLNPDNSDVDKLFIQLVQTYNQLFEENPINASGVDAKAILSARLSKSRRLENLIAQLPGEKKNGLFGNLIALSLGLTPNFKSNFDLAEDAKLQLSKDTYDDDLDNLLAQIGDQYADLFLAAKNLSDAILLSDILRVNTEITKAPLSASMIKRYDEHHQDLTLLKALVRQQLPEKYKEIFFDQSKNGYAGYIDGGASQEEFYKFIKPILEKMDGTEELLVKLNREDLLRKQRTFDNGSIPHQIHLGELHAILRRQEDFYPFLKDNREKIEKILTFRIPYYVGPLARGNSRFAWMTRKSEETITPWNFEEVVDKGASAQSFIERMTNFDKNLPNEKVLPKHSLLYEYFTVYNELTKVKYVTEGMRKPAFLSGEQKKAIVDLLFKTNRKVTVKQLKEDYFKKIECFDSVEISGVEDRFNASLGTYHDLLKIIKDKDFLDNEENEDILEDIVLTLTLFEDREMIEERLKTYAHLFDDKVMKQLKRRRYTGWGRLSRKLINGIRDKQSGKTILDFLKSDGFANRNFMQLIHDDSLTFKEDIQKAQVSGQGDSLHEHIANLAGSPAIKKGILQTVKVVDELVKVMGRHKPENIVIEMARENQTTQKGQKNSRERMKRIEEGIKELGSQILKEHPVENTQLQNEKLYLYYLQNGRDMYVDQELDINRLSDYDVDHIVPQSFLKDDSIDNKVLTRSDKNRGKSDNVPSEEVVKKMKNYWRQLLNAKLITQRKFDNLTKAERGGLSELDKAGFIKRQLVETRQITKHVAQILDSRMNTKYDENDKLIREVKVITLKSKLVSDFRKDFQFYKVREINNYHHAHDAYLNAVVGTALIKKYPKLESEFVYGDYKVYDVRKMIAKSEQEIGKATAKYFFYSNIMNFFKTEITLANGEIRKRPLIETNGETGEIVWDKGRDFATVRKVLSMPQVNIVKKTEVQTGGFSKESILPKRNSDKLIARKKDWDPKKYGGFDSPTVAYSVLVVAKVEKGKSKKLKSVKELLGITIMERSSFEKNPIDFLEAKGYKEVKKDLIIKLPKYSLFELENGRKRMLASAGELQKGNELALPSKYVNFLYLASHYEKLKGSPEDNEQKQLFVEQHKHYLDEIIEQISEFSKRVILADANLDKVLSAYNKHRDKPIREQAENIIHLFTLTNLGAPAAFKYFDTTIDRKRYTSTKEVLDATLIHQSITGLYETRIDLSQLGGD
Protocol: NHEJ assay. Approximately 8,000 cells/well were plated in a 96-well format 24 h before transiently transfected with a total 100 ng of DN66 (mCherry-TAG-GFP reporter) and DN78 (SpCas9 and gRNA) plasmids (1:1) using Lipofectamine™ 2000 (Life Technologies™) 3. Transfected cells were allowed to grow in the indicated amount of compound or DMSO for 24 h. Cells were then fixed using 4% paraformaldehyde and imaged with the HCS NuclearMask™ Blue Stain (Life Technologies™) as the nuclear counter-staining agent. Imaging was performed with an IXM 137204 ImageXpress® Automated High Content Microscope (Molecular Devices™) at 20× magnification under three excitation channels (blue, green and red) with 9 acquiring sites per well. Images were analyzed in the MetaXpress® software to determine the % NHEJ and the data were plotted using GraphPad Prism 6. The Z′-value was calculated following the formula:
NHEJ assay. Approximately 8,000 cells/well were plated in a 96-well format 24 h before transiently transfected with a total 100 ng of DN66 (mCherry-TAG-GFP reporter) and DN78 (SpCas9 and gRNA) plasmids (1:1) using Lipofectamine™ 2000 (Life Technologies™)^3. […] Images were analyzed in the MetaXpress® software to determine the % NHEJ and the data were plotted using GraphPad Prism 6. The Z′-value was calculated following the formula: […]

U2OS.eGFP.PEST cells = test: Cell viability assay (ATP content) of U2OS.eGFP.PEST cells; format: cell-based, human; settings: for cytotoxicity (ATP content) in secondary screen: 20 μM compounds, 48 h; for cellular ATP-levels: U2OS cells, up to 20 μM, 24 h
Protocol: FIG. 14—Cell viability assay (ATP content) of U2OS.eGPF.PEST cells in the presence of compounds. Measurement of ATP content of U2OS.eGFP.PEST cells upon incubating with 20 μM compounds for 48 h. Error bars represent ±S.D. from technical replicates (n=3).
FIG. 22—Cell viability assay (ATP content) of U2OS.eGFP.PEST cells in the presence of compounds. Measurement ATP content of U2OS.eGFP.PEST cells upon incubating with BRD7087 and BRD5779 (5-20 μM) for 24 h. Error bars represent ±S.D. from technical replicates (n=3).
FIG. 58. Cell viability assay (ATP content) of U2OS.eGFP.PEST cells in the presence of compounds. Measurement of ATP content of U2OS.eGFP.PEST cells upon incubating with 20 μM compound for 48 h. Error bars represent±S.D. from technical replicates (n=3).
FIG. 66. Cell viability assay (ATP content) of U2OS.eGFP.PEST cells in the presence of compounds. Measurement of ATP content of U2OS.eGFP.PEST cells upon incubating with BRD7087 and BRD5779 (5-20 μM) for 24 h. Error bars represent ±S.D. from technical replicates (n=3).

Row | Structure (SMILES) | toxicity to bacteria in the presence of inhibitor alone (S. aureus RN4220) | inhibition of SpCas9-mediated NHEJ (SpCas9) | cytotoxicity (ATP content) in secondary screen (U2OS.eGFP.PEST cells) | cellular ATP-levels (U2OS.eGFP.PEST cells)
1 | COc1ccc(-c2ccc3c(c2)[C@H]2[C@H](CCN2Cc2ccncc2)[C@@H](CO)N3)cc1 [BRD5779, ((3aR,4S,9bR)-8-(4-Methoxyphenyl)-1-(pyridin-4-ylmethyl)-2,3,3a,4,5,9b-hexahydro-1H-pyrrolo[3,2-c]quinolin-4-yl)methanol] | non-toxic in the absence of phage | active; also recorded: Dose-dependent inhibition of SpCas9-mediated NHEJ | non-toxic | did not significantly alter
2 | OC[C@H]1Nc2ccc(-c3cccc(F)c3)cc2[C@H]2[C@@H]1CCN2Cc1ccncc1 [BRD7087, ((3aR,4S,9bR)-8-(3-Fluorophenyl)-1-(pyridin-4-ylmethyl)-2,3,3a,4,5,9b-hexahydro-1H-pyrrolo[3,2-c]quinolin-4-yl)methanol] | non-toxic in the absence of phage | active; also recorded: Dose-dependent inhibition of SpCas9-mediated NHEJ | non-toxic | did not significantly alter

From patent US11965159B2, “Compositions and methods for regulating proteins and nucleic acids activities” (THE BROAD INSTITUTE, INC., priority 2019, dated 2024)
